Patent US5788964A, “Method for sensitization of cancer cells for killer cell mediated lysis” (Orion-Yhtyma Oy, priority 1996, dated 1998)

Key:
[1] = system: P815 (NK resistant murine mastocytoma); test: LAK cell mediated cytotoxicity (51Cr release), rat LAK; conditions: for target cell lysis, effector cells pretreated (in words): LAK effectors pretreated; for lysis of treated targets by treated effectors (in words) / target cell lysis, target cells treated (in words): LAK effectors; for lysis of treated targets by treated effectors (in words): both treated; for target cell lysis, target cells treated (in words): target cells treated for 4 h prior to the cytotoxic reaction
Method: Rat spleen cells were used as effector cells either without activation (NK cells), or after treatment with human IL-2 (LAK), or after stimulation with the Nb2 rat lymphoma in mixed cultures (CTL). The Yac-1 murine lymphoma was used as a target for NK cells, the P815 mastocytoma for LAK cells and Nb2 cells for CTL. […] Target cells were labeled with ^51 Cr for 1 hr, then washed. The specific ^51 Cr release was determined after 4 hours of incubation at 37° C., 5% CO2 (target/effector 1:25).
Target cells: P815 (NKresistant murine mastocytoma)
Effectar cells: Spleen cells of Fischer rats were cultured in medium
supplemented with 500 U/ml riL2 for 6 days at 37° C. and 5%

[2] = system: P815 mastocytoma; test: Immunotherapy of P815 mastocytoma, drug by gavage and LAK cells (Example 6); type: in vivo, DBA/2 mice; conditions: 10 mg/kg/day by gavage, with or without LAK as labelled
Method: DBA/2 female mice were injected s. c. with 10^4 P815 tumor cells. […] Two days later 25×10^4 LAK cells were given i.p., LAK was injected three times more, four days apart. Drug treatment was maintained from day 14 until day 30.

[3] = system: Nb2 rat lymphoma; test: Target cell destruction by cytolytic lymphocytes (CTL) generated in mixed cultures (51Cr release); conditions: for target cell lysis, effector cells pretreated (in words): CTL effectors pretreated; for lysis of treated targets by treated effectors (in words) / target cell lysis, target cells treated (in words): CTL effectors; for lysis of treated targets by treated effectors (in words): both treated; for target cell lysis, target cells treated (in words): target cells treated for 4 h prior to the cytotoxic reaction
Method: (§1) Target cells were labeled with ^51 Cr for 1 hr, then washed. The specific ^51 Cr release was determined after 4 hours of incubation at 37° C., 5% CO2 (target/effector 1:25).
Target cells: Nb2 rat lymphoma
Effector cells: Cytotoxic Tlymphocytes (CTL) generated in mixed cultures,
Responder: Spleen cells of Fischer rats. Stimulator: Nb2 cells (thymic

[4] = system: P815 tumor cells; test: Winn assay, pretreated P815 cells mixed with LAK cells 1:25 (Example 2); type: in vivo, DBA/2 mice; conditions: target:effector 1:25, s.c., groups of 4
Method: (§2) For the generation of LAK cells, 2×10^6 /ml of spleen cells from female DBA/N2 mice were cultured for 5 days in RPMI-1640 medium supplemented with 10%FCS, 5×10^-5 M 2-mercaptoethanol and 500 U/mI of human recombinant interleukin-2 at 370C in humidified air containing 5% CO2.

[5] = system: Yac1 murine lymphoma; test: NK cell mediated cytotoxicity (51Cr release); conditions: for target cell lysis, effector cells pretreated (in words): NK effectors pretreated; for lysis of treated targets by treated effectors (in words) / target cell lysis, target cells treated (in words): NK effectors; for lysis of treated targets by treated effectors (in words): both treated; for target cell lysis, target cells treated (in words): target cells treated for 4 h prior to the cytotoxic reaction
Method: as §1
Target cells: Yac1 murine lymphoma
Effector cells: Spleen lymphocytes of female Fishner rats

[6] = system: P815 cells; test: 51Cr assay, killing of P815 cells by LAK cells from DBA/N2 mice (Example 2); conditions: Mus musculus, P815, 4 h, read-out: P815 cells killed by LAK cells
Method: as §2

[7] = system: P815 tumor; test: P815 tumor growth, drug in drinking water with or without LAK (Example 3); type: in vivo, mice; conditions: drinking water TX 100 μg/ml, TO 400 μg/ml; LAK 1:25 then weekly for 3 weeks
[8] = system: tumor estrogen receptors; conditions: background statement; cited from earlier work

Row | SMILES | target cell lysis, effector cells pretreated (in words) [1] | lysis of treated targets by treated effectors (in words) [1] | target cell lysis, target cells treated (in words) [1] | partial regression [2] | target cell lysis, effector cells pretreated (in words) [3] | lysis of treated targets by treated effectors (in words) [3] | target cell lysis, target cells treated (in words) [3] | animals protected / survival [4] | target cell lysis, effector cells pretreated (in words) [5] | lysis of treated targets by treated effectors (in words) [5] | target cell lysis, target cells treated (in words) [5] | cytotoxicity at 5 µM [6] [%] | tumor free animals [7] | inhibition of estrogen-induced growth [8] | cytotoxicity at 1 µM [6] [%]
1 | CN(C)CCOc1ccc(/C(=C(/CCCl)c2ccccc2)c2ccccc2)cc1 [TO, toremifene] | no such enhancing effect | lysed treated targets as efficiently as did nontreated effectors | enhanced target cell lysis in a dose dependent fashion | one | no such enhancing effect | lysed treated targets as efficiently as did nontreated effectors | enhanced target cell lysis in a dose dependent fashion | 1 of 4 | no such enhancing effect | lysed treated targets as efficiently as did nontreated effectors | enhanced target cell lysis in a dose dependent fashion | 51 | one | – | –
2 | CC/C(=C(\c1ccccc1)c1ccc(OCCN(C)C)cc1)c1ccccc1 [TX, tamoxifen] | no such enhancing effect | lysed treated targets as efficiently as did nontreated effectors | enhanced target cell lysis in a dose dependent fashion | one | no such enhancing effect | lysed treated targets as efficiently as did nontreated effectors | enhanced target cell lysis in a dose dependent fashion | killed all the animals | no such enhancing effect | lysed treated targets as efficiently as did nontreated effectors | enhanced target cell lysis in a dose dependent fashion | – | – | inhibit estrogen-induced growth by competitive antagonism of tumor estrogen receptors | 52
